Values quoted from earlier work as cited in publication PMC7094870 (ACS chemical biology, 2020).

System: platinum resistant ovarian cancer and non-small cell lung cancer
Conditions: patients; cited from earlier work

In the case of `COc1ccc(C[C@H]2NC(=O)/C=C/C[C@@H]([C@H](C)[C@H]3O[C@@H]3c3ccccc3)OC(=O)[C@H](CC(C)C)OC(=O)C(C)(C)CNC2=O)cc1Cl` [cryptophycin-52], the “dose limiting toxicity in clinical trials” value is listed as “dose limiting peripheral neuropathy”.
